According to patent US20220009874A1, “CATALYTIC SYNTHESIS OF ANTI-UV AND ANTIOXIDANT CONJUGATED 8-8 DIMERS IN A GREEN SOLVENT” (INSTITUT DES SCIENCES ET INDUSTRIES DU VIVANT ET DE …, priority 2018, published 2022):

Assay: UV absorbance of the dimers in ethanol compared with sinapoyl malate
Assay type: physicochemical
Conditions: 10 μmol·L^−1 in ethanol; for absorption band: FIG. 1
Description: a. […] A change of the R3 radical can also affect these properties (FIG. 11).

With `CCOC(=O)C(=Cc1cc(OC)c(O)c(OC)c1)C(=Cc1cc(OC)c(O)c(OC)c1)C(=O)OCC` [ethyl β-β disinapate] the absorption band was 200-400 nm and the “anti-UV properties (UV absorbance) compared with sinapoyl malate” value (FIGS. 1 to 16) was “higher anti-UV properties than sinapoyl malate”.
For `COc1cc(/C=C/C(=O)OC(CC(=O)O)C(=O)O)cc(OC)c1O` (stereo not drawn) [sinapoyl malate, reference compound], the absorption band was 200-370 nm.
